Data as given in patent US6410810B1, “Handling method of (fluoroaryl) borane compound and preparing method of hydrocarbon solution” (Nippon Shokubai Co., Ltd., priority 1997, dated 2002).

Experimental: The cake is analyzed by ^19F-NMR. More specifically, ^19F-NMR is measured under predetermined conditions using p-fluorotoluene as an internal standard reagent. Then, a peak integral of a fluorine atom of p-fluorotoluene, and a peak integral of fluorine atoms at the ortho-position of a pentafluorophenyl group in tris(pentafluorophenyl)borane are computed from the resulting ^19F-NMR chart first, and thence a weight of tris(pentafluorophenyl)borane is computed using the above two peak integrals.
Here, 0.4963 g (purity: 99%, area ratio) of powders of tris(pentafluorophenyl)borane and 16.0878 g of IsoparE are charged to a vessel, in which the air has been displaced by a nitrogen gas satisfactorily, after which the mixture is stirred for 3 hours or so at 28° C. with stirring.
After the solution is cooled to room temperature, the supernatant is analyzed in the same manner as Example 1 above using ^19F-NMR.

## Fc1c(F)c(F)c(B(c2c(F)c(F)c(F)c(F)c2F)c2c(F)c(F)c(F)c(F)c2F)c(F)c1F [tris(pentafluorophenyl)borane]
  concentration of tris(pentafluorophenyl)borane in supernatant: 0.91 wt %
  solubility with respect to IsoparE: 0.91 wt %
0.4963 g powders in 16.0878 g IsoparE, heated
  temperature at which completely dissolved into IsoparE: 87 °C
0.4963 g powders in 16.0878 g IsoparE, stirred 3 hours or so at 28° C.
  dissolution into IsoparE: does not dissolve into IsoparE completely
3 wt %
  purity after dissolving with heating (stability): 83.0 % (area ratio)
IsoparE solution allowed to stand and cooled
  temperature at which the solution starts to crystallize on cooling: 63 °C
